Peptide text beside a SMILES is read from it.
Test system: PGase
Assay: Km and Vmax of PGase substrates (Lineweaver-Burk plot)
Format: biochemical, Bacillus circulans
Conditions: 0.05 M phosphate buffer, pH 7.0, 30° C.
Method: A 1 mL enzyme preparation containing 0.25-0.50 mg protein was added to 2-5 mL substrate in 0.05 M phosphate buffer, pH 7.0. The substrate concentrations were 0.2% CBZ-L-Gln, 0.2% BOC-Gln-Pro and 0.2% peptone type IV. Peptone solutions (5%) were ultrafiltered prior to use, through the 30 kd spiral membrane incubated at 30° C. for 30 or 60 min, then the ammonia constant of the samples was determined with a model 95-10 ammonia electrode (Orion Research Inc., Cambridge, Mass.).
The effects of the molarity and pH of the sodium phosphate buffer on PGase activity were studied. The progress of the PGase deamidation reaction of Peptone IV in 0.05 M phosphate buffer, pH 7.0, as a function of time was measured at 25° C. and 30° C.

SMILES	Km [µM]	Vmax [µmol/min/mg]
NC(=O)CC[C@H](NC(=O)OCc1ccccc1)C(=O)O [CBZ-glutamine, CBZ-L-glutamine]	67	
CC(C)(C)OC(=O)N[C@@H](CCC(N)=O)C(=O)N1CCC[C@H]1C(=O)O [BOC-glutamine-proline, t-BOC-L-glutaminyl-L-proline] (HELM PEPTIDE1{[CC(C)(C)OC(=O)[*:2]].Q.P}$$$$V2.0)	143	0.52

From US5250305A, “Process for enzymatic ultrafiltration of deamidated protein” (The United States of America as represented by the …, priority 1990, dated 1993)
